Data as given in patent US9896441B2 (Lycera Corporation, priority 2014, dated 2018).
pEC50: −log10 of the molar value.

Assays:
RORγ-LBD = target: T1, RORγ-LBD (Homo sapiens, UniProt P51449); test: RORγ-Ligand Binding Domain (LBD) TR-FRET Assay; format: biochemical
T1 construct: made in house; host or cells: SF9 cells (baculovirus); used as diluted lysate
T1 sequence (P51449 269-508 limits assumed): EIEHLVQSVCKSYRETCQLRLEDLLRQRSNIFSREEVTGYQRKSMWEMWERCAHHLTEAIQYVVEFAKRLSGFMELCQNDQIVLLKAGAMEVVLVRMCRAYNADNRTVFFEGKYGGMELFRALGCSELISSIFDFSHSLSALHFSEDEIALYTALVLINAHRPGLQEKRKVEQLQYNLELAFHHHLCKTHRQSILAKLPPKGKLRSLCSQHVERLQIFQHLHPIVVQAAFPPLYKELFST
Procedure, shortened: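 Compounds, diluted in DMSO and then in assay buffer (1% DMSO final), were combined with His-tagged RORγ-LBD lysate at roughly 3 nM final and a 200 nM biotinylated SRC1 LXXLL peptide. Ursolic acid was included at 2 μM final. Coactivator recruitment was detected by TR-FRET.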

Gal4-RORγ-LBD = target: T2, Gal4-RORγ-LBD (Homo sapiens, UniProt P51449); test: Gal4-RORγ Luciferase Reporter Assay in HEK-293T Cells; format: cell-based; conditions: HEK-293 cells
T2 construct: expressed in transfected cells
T2 sequence (P51449 269-508 limits assumed): T1 sequence (P51449 269-508 limits assumed)
Procedure, shortened: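 Max Response was taken as the upper plateau of a 4-parameter logistic fit of luciferase signal, normalized to 100 for wells without ursolic acid or compound. Transiently Gal4-RORγ-LBD/Gal4-luc transfected HEK-293 cells carrying […] ursolic acid were incubated with test compounds (0.2% DMSO) overnight at 37 °C and read with One-Glo.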

[1] = luciferase reporter, with ursolic acid
[2] = with 2 μM ursolic acid (RORγ antagonist), highest test concentration 10 μM
[3] = ursolic acid present, luciferase readout

SMILES | pEC50 (RORγ-LBD; RORγ-LBD TR-FRET) | pEC50 (Gal4-RORγ-LBD; [1]) | pEC50 (RORγ-LBD; [2]) | pEC50 (Gal4-RORγ-LBD; [3])
CCOc1ncc(C(F)(F)F)cc1S(=O)(=O)N1C[C@H](CCC(=O)O)Oc2ccc(/C=C/c3c(Cl)cccc3C(C)(F)F)cc21 [Example 89FG, (S,E)-3-(6-(2-chloro-6-(1,1-difluoroethyl)styryl)-4-((2-ethoxy-5-(trifluoromethyl)-pyridin-3-yl)sulfonyl)-3,4-dihydro-2H-benzo[b][1,4]-oxazin-2-yl)propanoic acid] | > 6.30 | > 6.30 |  | 
CCOc1ncc(C(F)(F)F)cc1S(=O)(=O)N1C[C@H](CCC(=O)OC)Oc2ccc(/C=C/c3c(Cl)cccc3C(C)(F)F)cc21 [Example 89FH, methyl (S,E)-3-(6-(2-chloro-6-(1,1-difluoroethyl)styryl)-4-((2-ethoxy-5-(trifluoromethyl)-pyridin-3-yl)sulfonyl)-3,4-dihydro-2H-benzo[b][1,4]-oxazin-2-yl)propanoate] | > 6.30 | > 6.30 |  | 
CC(F)(F)c1cccc(Cl)c1/C=C/c1ccc2c(c1)N(S(=O)(=O)c1cc(C(F)(F)F)cnc1OCCO)C[C@H](CCC(=O)O)O2 [Example 89FI, (S,E)-3-(6-(2-chloro-6-(1,1-difluoroethyl)styryl)-4-((2-(2-hydroxyethoxy)-5-(trifluoromethyl)pyridin-3-yl)sulfonyl)-3,4-dihydro-2H-benzo[b][1,4]-oxazin-2-yl)propanoic acid] | > 6.30 | > 6.30 |  | 
O=C(O)CC[C@H]1CN(S(=O)(=O)c2cc(C(F)(F)F)cnc2OCC(O)CO)c2cc(/C=C/c3c(F)cccc3Cl)ccc2O1 (stereo partly drawn) [Example 89FJ, 3-((2S)-6-((E)-2-chloro-6-fluorostyryl)-4-((2-(2,3-dihydroxypropoxy)-5-(trifluoromethyl)pyridin-3-yl)sulfonyl)-3,4-dihydro-2H-benzo[b][1,4]oxazin-2-yl)propanoic acid] | > 6.30 | 5.30 to 6.30 |  | 
CC(C)Oc1ncc(C(F)(F)F)cc1S(=O)(=O)N1C[C@H](CCC(=O)O)Oc2ccc(/C=C/c3c(F)cccc3Cl)cc21 [Example 89FK, (S,E)-3-(6-(2-chloro-6-fluorostyryl)-4-((2-isopropoxy-5-(trifluoromethyl)pyridin-3-yl)sulfonyl)-3,4-dihydro-2H-benzo[b][1,4]oxazin-2-yl)propanoic acid] | > 6.30 | < 5.00 |  | 
C[C@H](O)COc1ncc(C(F)(F)F)cc1S(=O)(=O)N1C[C@H](CCC(=O)O)Oc2ccc(/C=C/c3c(F)cccc3Cl)cc21 [Example 89FM, 3-((S)-6-((E)-2-chloro-6-fluorostyryl)-4-((2-((S)-2-hydroxypropoxy)-5-(trifluoromethyl)pyridin-3-yl)sulfonyl)-3,4-dihydro-2H-benzo[b][1,4]oxazin-2-yl)propanoic acid] | > 6.30 | 5.30 to 6.30 |  | 
COC(=O)CC[C@H]1CN(S(=O)(=O)c2cc(C(F)(F)F)cnc2OC[C@H](C)O)c2cc(/C=C/c3c(F)cccc3Cl)ccc2O1 [Example 89FN, methyl 3-((S)-6-((E)-2-chloro-6-fluorostyryl)-4-((2-((S)-2-hydroxypropoxy)-5-(trifluoromethyl)pyridin-3-yl)sulfonyl)-3,4-dihydro-2H-benzo[b][1,4]oxazin-2-yl)propanoate] | > 6.30 | 5.30 to 6.30 |  | 
O=C(O)CC[C@H]1CN(S(=O)(=O)c2cc(C3CC3)cnc2OCCO)c2cc(/C=C/c3c(F)cccc3Cl)ccc2O1 [Example 89FO, (S,E)-3-(6-(2-chloro-6-fluorostyryl)-4-((5-cyclopropyl-2-(2-hydroxyethoxy)pyridin-3-yl)sulfonyl)-3,4-dihydro-2H-benzo[b][1,4]oxazin-2-yl)propanoic acid] |  |  | > 6.30 | > 6.30
COC(=O)CC[C@H]1CN(S(=O)(=O)c2cc(C3CC3)cnc2OCCO)c2cc(/C=C/c3c(F)cccc3Cl)ccc2O1 [Example 89FP, methyl (S,E)-3-(6-(2-chloro-6-fluorostyryl)-4-((5-cyclopropyl-2-(2-hydroxyethoxy)pyridin-3-yl)sulfonyl)-3,4-dihydro-2H-benzo[b][1,4]oxazin-2-yl)propanoate] |  |  | > 6.30 | > 6.30
O=C(O)CC[C@H]1CN(S(=O)(=O)c2cccc(OC(F)F)c2)c2cc(/C=C/c3ncccn3)ccc2O1 [Example 89G, (S,E)-3-(4-((3-(difluoromethoxy)-phenyl)sulfonyl)-6-(2-(pyrimidin-2-yl)vinyl)-3,4-dihydro-2H-benzo[b][1,4]oxazin-2-yl)propanoic acid] | 5.30 to 6.30 | < 5.00 |  | 
COC(=O)CC[C@H]1CN(S(=O)(=O)c2cccc(OC(F)F)c2)c2cc(/C=C/c3ncccn3)ccc2O1 [Example 89H, (S,E)-methyl 3-(4-((3-(difluoromethoxy)-phenyl)sulfonyl)-6-(2-(pyrimidin-2-yl)vinyl)-3,4-dihydro-2H-benzo[b][1,4]oxazin-2-yl)propanoate] | > 6.30 | < 5.00 |  | 
CCOc1nn(CC)cc1S(=O)(=O)N1C[C@H](CCC(=O)O)Oc2ccc(/C=C/c3cccnc3)cc21 [Example 89I, (S,E)-3-(4-((3-ethoxy-1-ethyl-1H-pyrazol-4-yl)sulfonyl)-6-(2-(pyridin-3-yl)vinyl)-3,4-dihydro-2H-benzo[b][1,4]oxazin-2-yl)propanoic acid] | < 5.00 | < 5.00 |  | 
CCOc1nn(CC)cc1S(=O)(=O)N1C[C@H](CCC(=O)OC)Oc2ccc(/C=C/c3cccnc3)cc21 [Example 89J, (S,E)-methyl 3-(4-((3-ethoxy-1-ethyl-1H-pyrazol-4-yl)sulfonyl)-6-(2-(pyridin-3-yl)vinyl)-3,4-dihydro-2H-benzo[b][1,4]oxazin-2-yl)propanoate] | 5.30 to 6.30 | < 5.00 |  | 

Continued, values first:

pEC50 (RORγ-LBD; RORγ-LBD TR-FRET) | pEC50 (Gal4-RORγ-LBD; [1]) | pEC50 (RORγ-LBD; [2]) | pEC50 (Gal4-RORγ-LBD; [3]) | SMILES
> 6.30 | 5.30 to 6.30 |  |  | CCOc1nn(CC)cc1S(=O)(=O)N1C[C@H](CCC(=O)O)Oc2ccc(/C=C/c3ccsc3)cc21 [Example 89K, (S,E)-3-(4-((3-ethoxy-1-ethyl-1H-pyrazol-4-yl)sulfonyl)-6-(2-(thiophen-3-yl)vinyl)-3,4-dihydro-2H-benzo[b][1,4]oxazin-2-yl)propanoic acid]
> 6.30 | 5.30 to 6.30 |  |  | CCOc1nn(CC)cc1S(=O)(=O)N1C[C@H](CCC(=O)OC)Oc2ccc(/C=C/c3ccsc3)cc21 [Example 89L, (S,E)-methyl 3-(4-((3-ethoxy-1-ethyl-1H-pyrazol-4-yl)sulfonyl)-6-(2-(thiophen-3-yl)vinyl)-3,4-dihydro-2H-benzo[b][1,4]oxazin-2-yl)propanoate]
< 5.00 | < 5.00 |  |  | CCOc1nn(CC)cc1S(=O)(=O)N1C[C@H](CCC(=O)O)Oc2ccc(/C=C/c3nccnc3Cl)cc21 [Example 89M, (S,E)-3-(6-(2-(3-chloropyrazin-2-yl)vinyl)-4-((3-ethoxy-1-ethyl-1H-pyrazol-4-yl)sulfonyl)-3,4-dihydro-2H-benzo[b][1,4]oxazin-2-yl)propanoic acid]
5.00 to 5.30 | < 5.00 |  |  | CCOc1nn(CC)cc1S(=O)(=O)N1C[C@H](CCC(=O)OC)Oc2ccc(/C=C/c3nccnc3Cl)cc21 [Example 89N, (S,E)-methyl 3-(6-(2-(3-chloropyrazin-2-yl)vinyl)-4-((3-ethoxy-1-ethyl-1H-pyrazol-4-yl)sulfonyl)-3,4-dihydro-2H-benzo[b][1,4]oxazin-2-yl)propanoate]
> 6.30 | < 5.00 |  |  | CCOc1nn(CC)cc1S(=O)(=O)N1C[C@H](CCC(=O)O)Oc2ccc(/C=C/c3cccs3)cc21 [Example 89O, (S,E)-3-(4-((3-ethoxy-1-ethyl-1H-pyrazol-4-yl)sulfonyl)-6-(2-(thiophen-2-yl)vinyl)-3,4-dihydro-2H-benzo[b][1,4]oxazin-2-yl)propanoic acid]
5.30 to 6.30 | < 5.00 |  |  | CCOc1nn(CC)cc1S(=O)(=O)N1C[C@H](CCC(=O)OC)Oc2ccc(/C=C/c3cccs3)cc21 [Example 89P, (S,E)-methyl 3-(4-((3-ethoxy-1-ethyl-1H-pyrazol-4-yl)sulfonyl)-6-(2-(thiophen-2-yl)vinyl)-3,4-dihydro-2H-benzo[b][1,4]oxazin-2-yl)propanoate]
< 5.00 | < 5.00 |  |  | CCOc1nn(CC)cc1S(=O)(=O)N1C[C@H](CCC(=O)O)Oc2ccc(/C=C/c3nccs3)cc21 [Example 89Q, (S,E)-3-(4-((3-ethoxy-1-ethyl-1H-pyrazol-4-yl)sulfonyl)-6-(2-(thiazol-2-yl)vinyl)-3,4-dihydro-2H-benzo[b][1,4]oxazin-2-yl)propanoic acid]
5.00 to 5.30 | < 5.00 |  |  | CCOc1nn(CC)cc1S(=O)(=O)N1C[C@H](CCC(=O)OC)Oc2ccc(/C=C/c3nccs3)cc21 [Example 89R, (S,E)-methyl 3-(4-((3-ethoxy-1-ethyl-1H-pyrazol-4-yl)sulfonyl)-6-(2-(thiazol-2-yl)vinyl)-3,4-dihydro-2H-benzo[b][1,4]oxazin-2-yl)propanoate]
5.30 to 6.30 | < 5.00 |  |  | CCOc1nn(CC)cc1S(=O)(=O)N1C[C@H](CCC(=O)O)Oc2ccc(/C=C/c3cccc(OC)n3)cc21 [Example 89S, (S,E)-3-(4-((3-ethoxy-1-ethyl-1H-pyrazol-4-yl)sulfonyl)-6-(2-(6-methoxypyridin-2-yl)vinyl)-3,4-dihydro-2H-benzo[b][1,4]-oxazin-2-yl)propanoic acid]
